# Laboratory results reported in patent US20090304692A1, “TRIAZINE COMPOUNDS AS PI3 KINASE AND MTOR INHIBITORS” (Wyeth, priority 2008, published 2009).
# “And” between values parts separate entries of the source, which are not always exact repeats. Equal entries are not always repeated. Where two headings read alike, the source gives them in different places.
# Assays:
# Human mTOR (FLAG-TOR) = Human mTOR (FLAG-TOR) (Homo sapiens, UniProt P42345); assay: mTOR kinase assay (DELFIA format, purified enzyme); assay type: biochemical; details: read-out: IC50 mTOR
# Sequence of Human mTOR (FLAG-TOR) (P42345 1360-2549 limits assumed): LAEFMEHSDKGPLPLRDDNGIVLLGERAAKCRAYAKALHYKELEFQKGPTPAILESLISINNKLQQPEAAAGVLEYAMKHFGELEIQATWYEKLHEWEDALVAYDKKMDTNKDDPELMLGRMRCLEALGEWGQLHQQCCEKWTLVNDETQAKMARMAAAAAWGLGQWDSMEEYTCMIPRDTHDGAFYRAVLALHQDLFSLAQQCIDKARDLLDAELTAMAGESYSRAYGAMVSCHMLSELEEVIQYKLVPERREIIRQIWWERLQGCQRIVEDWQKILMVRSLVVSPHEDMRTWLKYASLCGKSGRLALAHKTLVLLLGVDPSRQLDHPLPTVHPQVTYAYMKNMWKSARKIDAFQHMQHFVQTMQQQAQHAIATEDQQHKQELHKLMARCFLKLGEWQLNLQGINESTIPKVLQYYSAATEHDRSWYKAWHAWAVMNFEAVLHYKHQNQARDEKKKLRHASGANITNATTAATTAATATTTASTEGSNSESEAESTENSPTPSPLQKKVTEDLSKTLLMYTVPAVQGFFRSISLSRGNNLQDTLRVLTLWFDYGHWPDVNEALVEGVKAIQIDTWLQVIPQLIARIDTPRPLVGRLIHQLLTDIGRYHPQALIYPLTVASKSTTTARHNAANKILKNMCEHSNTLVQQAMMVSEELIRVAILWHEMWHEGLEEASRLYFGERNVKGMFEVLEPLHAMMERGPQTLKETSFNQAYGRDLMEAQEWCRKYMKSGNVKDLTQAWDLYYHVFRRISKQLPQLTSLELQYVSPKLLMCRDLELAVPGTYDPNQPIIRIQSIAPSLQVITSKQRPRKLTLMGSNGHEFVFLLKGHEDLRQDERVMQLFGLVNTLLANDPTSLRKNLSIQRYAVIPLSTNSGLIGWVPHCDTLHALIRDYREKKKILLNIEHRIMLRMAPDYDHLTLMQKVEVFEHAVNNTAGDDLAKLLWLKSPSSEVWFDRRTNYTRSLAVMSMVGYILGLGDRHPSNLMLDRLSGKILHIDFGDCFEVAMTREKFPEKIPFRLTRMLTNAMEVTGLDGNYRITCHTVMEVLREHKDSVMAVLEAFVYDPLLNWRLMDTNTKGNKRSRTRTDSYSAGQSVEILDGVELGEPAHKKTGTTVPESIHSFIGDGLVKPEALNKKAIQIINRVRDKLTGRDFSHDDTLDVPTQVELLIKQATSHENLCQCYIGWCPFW
# PI3K-α = PI3K-α (Homo sapiens, UniProt P42336); assay: PI3K-alpha fluorescence polarization assay; details: read-out: IC50 PI3Kα
# Sequence of PI3K-α (P42336 whole entry, species assumed): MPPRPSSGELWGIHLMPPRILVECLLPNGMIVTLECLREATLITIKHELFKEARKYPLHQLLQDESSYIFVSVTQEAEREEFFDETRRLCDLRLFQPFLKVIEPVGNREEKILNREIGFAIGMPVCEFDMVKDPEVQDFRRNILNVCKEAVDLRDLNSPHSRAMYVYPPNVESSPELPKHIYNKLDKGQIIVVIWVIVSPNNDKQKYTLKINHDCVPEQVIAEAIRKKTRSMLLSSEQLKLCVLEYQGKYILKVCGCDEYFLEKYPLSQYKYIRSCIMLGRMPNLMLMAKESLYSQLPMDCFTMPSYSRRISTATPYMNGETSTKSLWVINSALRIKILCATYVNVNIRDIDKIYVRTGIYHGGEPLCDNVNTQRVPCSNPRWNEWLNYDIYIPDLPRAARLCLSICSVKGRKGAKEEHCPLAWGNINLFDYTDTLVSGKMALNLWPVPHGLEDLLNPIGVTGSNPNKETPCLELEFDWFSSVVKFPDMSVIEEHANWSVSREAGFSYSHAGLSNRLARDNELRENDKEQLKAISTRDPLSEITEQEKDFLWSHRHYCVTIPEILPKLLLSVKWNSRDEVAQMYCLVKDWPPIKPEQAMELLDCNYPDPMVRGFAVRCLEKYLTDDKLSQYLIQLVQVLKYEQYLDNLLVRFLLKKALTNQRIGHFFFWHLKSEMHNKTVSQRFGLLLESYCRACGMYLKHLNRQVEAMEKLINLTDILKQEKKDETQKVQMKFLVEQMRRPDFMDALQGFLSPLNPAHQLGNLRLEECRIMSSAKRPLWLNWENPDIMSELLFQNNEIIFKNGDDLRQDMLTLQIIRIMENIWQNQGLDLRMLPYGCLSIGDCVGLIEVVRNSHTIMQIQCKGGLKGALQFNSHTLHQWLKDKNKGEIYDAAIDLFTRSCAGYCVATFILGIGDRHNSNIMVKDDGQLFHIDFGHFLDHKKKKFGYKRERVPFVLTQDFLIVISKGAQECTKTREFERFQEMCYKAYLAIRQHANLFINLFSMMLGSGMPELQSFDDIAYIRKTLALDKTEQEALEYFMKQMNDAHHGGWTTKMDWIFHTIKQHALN
# Sequence of PI3K-α (P27986 whole entry partner, species assumed): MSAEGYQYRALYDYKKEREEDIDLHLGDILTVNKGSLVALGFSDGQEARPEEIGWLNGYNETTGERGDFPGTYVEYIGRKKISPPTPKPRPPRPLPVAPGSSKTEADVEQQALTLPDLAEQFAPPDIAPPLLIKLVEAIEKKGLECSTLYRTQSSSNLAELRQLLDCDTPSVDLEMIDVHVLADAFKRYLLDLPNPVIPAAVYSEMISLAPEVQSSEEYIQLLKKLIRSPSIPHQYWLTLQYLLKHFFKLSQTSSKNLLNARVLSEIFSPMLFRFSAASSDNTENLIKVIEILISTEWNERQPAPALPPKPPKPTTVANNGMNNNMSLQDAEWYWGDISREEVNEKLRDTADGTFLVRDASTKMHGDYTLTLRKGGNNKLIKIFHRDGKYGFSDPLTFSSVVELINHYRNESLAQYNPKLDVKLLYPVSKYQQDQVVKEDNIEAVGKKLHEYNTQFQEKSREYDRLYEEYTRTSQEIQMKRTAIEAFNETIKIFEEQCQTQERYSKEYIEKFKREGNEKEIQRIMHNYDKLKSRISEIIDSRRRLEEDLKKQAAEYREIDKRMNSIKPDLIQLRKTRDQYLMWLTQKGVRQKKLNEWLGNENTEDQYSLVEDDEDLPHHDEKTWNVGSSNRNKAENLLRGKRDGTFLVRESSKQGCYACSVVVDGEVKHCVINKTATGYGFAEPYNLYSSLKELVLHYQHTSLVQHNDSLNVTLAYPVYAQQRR
# PI3K-γ = PI3K-γ (Homo sapiens, UniProt P48736); assay: PI3K-gamma fluorescence polarization assay; details: read-out: IC50 PI3Kγ
# Sequence of PI3K-γ (P48736 whole entry, species assumed): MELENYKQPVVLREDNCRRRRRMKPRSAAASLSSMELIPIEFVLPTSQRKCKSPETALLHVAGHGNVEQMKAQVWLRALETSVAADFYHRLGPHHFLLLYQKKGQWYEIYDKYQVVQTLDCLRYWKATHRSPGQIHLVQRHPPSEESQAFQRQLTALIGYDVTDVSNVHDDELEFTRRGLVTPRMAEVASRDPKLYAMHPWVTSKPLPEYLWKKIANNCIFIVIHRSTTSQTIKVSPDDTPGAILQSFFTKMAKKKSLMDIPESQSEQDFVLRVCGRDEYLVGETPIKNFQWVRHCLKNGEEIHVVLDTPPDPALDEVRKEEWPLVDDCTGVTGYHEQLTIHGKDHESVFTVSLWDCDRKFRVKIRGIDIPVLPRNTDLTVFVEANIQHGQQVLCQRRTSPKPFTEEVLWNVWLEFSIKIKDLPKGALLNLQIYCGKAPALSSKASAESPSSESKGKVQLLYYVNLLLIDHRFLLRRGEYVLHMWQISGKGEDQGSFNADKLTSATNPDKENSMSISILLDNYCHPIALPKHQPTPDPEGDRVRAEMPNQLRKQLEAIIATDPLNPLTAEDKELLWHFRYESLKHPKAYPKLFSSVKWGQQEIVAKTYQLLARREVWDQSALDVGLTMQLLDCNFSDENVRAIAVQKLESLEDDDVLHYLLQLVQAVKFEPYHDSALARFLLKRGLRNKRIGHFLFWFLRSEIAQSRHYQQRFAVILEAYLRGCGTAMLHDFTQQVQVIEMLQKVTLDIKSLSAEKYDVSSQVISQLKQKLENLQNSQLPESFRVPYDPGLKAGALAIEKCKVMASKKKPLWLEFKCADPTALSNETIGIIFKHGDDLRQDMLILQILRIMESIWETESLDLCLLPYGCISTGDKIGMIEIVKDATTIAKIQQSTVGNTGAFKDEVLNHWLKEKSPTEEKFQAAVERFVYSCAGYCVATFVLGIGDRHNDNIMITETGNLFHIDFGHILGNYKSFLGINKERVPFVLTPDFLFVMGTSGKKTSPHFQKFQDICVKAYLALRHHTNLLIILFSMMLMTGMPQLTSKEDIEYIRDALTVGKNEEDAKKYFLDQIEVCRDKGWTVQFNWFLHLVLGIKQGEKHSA
# [1] = tested on: human prostate LNCap tumor cell line; assay: In vitro cell culture growth assay (MTS), LNCap; details: Homo sapiens, LNCaP, 72 h, read-out: IC50 LNCap
Structure (SMILES),IC50 (Human mTOR (FLAG-TOR)),IC50 (PI3K-α) [nM],IC50 (PI3K-γ) [nM],IC50 [1] [nM],IC50 (PI3K-α; listed as 358) [nM],IC50 (PI3K-γ; listed as 358) [nM]
"CN1CCN(c2ccc(NC(=O)Nc3ccc(-c4nc(N5CC6CCC(C5)O6)nc(N5[C@H](CO)CC[C@@H]5CO)n4)cc3)cc2)CC1 [Example 668, 1-(4-{4-[(2R,5S)-2,5-bis(hydroxymethyl)pyrrolidin-1-yl]-6-(8-oxa-3-azabicyclo[3.2.1]oct-3-yl)-1,3,5-triazin-2-yl}phenyl)-3-[4-(4-methylpiperazin-1-yl)phenyl]urea]",0.56 nM,122,625,0.8,–,–
"O=C(Nc1ccc(-c2nc(NN3CCN(C4CCCC4)CC3)nc(N3CC4CCC(C3)O4)n2)cc1)Nc1cccnc1 [Example 157, 1-(4-{4-[(4-cyclopentylpiperazin-1-yl)amino]-6-(8-oxa-3-azabicyclo[3.2.1]oct-3-yl)-1,3,5-triazin-2-yl}phenyl)-3-pyridin-3-ylurea]",170 nM,1450,7090,2700,–,–
"C[C@@H]1COCCN1c1nc(-c2ccc(NC(=O)Nc3cccnc3)cc2)nc(N2CCOC[C@H]2C)n1 [Example 398, 1-(4-(4,6-bis((R)-3-methylmorpholino)-1,3,5-triazin-2-yl)phenyl)-3-(pyridin-3-yl)urea]",0.21 nM,644,3910,12,–,–
"CC(C)N1CCN(c2ccc(NC(=O)Nc3ccc(-c4nc(C5CCOCC5)nc(N5CCOC[C@H]5C)n4)cc3)cc2)CC1 [Example 429, (R)-1-(4-(4-isopropylpiperazin-1-yl)phenyl)-3-(4-(4-(3-methylmorpholino)-6-(tetrahydro-2H-pyran-4-yl)-1,3,5-triazin-2-yl)phenyl)urea]",1.9 nM,483,1000,9,–,–
"O=C(Nc1ccc(C(=O)N2CCOCC2)cc1)Nc1ccc(-c2nc(C3CCOCC3)nc(N3C4CCC3COC4)n2)cc1 [Example 460, 1-(4-(4-(3-oxa-8-azabicyclo[3.2.1]octan-8-yl)-6-(tetrahydro-2H-pyran-4-yl)-1,3,5-triazin-2-yl)phenyl)-3-(4-(morpholine-4-carbonyl)phenyl)urea]",0.4 nM,143,1080,< 0.8,–,–
"COCC(COC)Oc1nc(-c2ccc(NC(=O)Nc3ccc(N4CCN(C)CC4)cc3)cc2)nc(N2CC3CCC(C2)O3)n1 [Example 175, 1-(4-{4-[2-methoxy-1-(methoxymethyl)ethoxy]-6-(8-oxa-3-azabicyclo[3.2.1]oct-3-yl)-1,3,5-triazin-2-yl}phenyl)-3-[4-(4-methylpiperazin-1-yl)phenyl]urea]",4.8 nM,549,453,9.5,–,–
"CC(C)Nc1nc(-c2ccc(NC(=O)Nc3ccc(OCCN4CCCC4)cc3)cc2)nc(N2C3CCC2COC3)n1 [Example 384, 1-(4-(4-(3-oxa-8-azabicyclo[3.2.1]octan-8-yl)-6-(isopropylamino)-1,3,5-triazin-2-yl)phenyl)-3-(4-(2-(pyrrolidin-1-yl)ethoxy)phenyl)urea]",6.4 nM,4220,5380,50,–,–
"CN1CCN(C2CCN(c3nc(-c4ccc(NC(=O)Nc5ccncc5)cc4)nc(N4CC5CCC(C4)O5)n3)CC2)CC1 [Example 122, 1-(4-(4-(8-oxa-3-azabicyclo[3.2.1]octan-3-yl)-6-(4-(4-methylpiperazin-1-yl)piperidin-1-yl)-1,3,5-triazin-2-yl)phenyl)-3-(pyridin-4-yl)urea]",74.5 nM,1160,9500,900,–,–
"O=C(Nc1ccncc1)Nc1ccc(-c2nc(N3CCSCC3)nc(N3C4CCC3COC4)n2)cc1 [Example 393, 1-(4-(4-(3-oxa-8-azabicyclo[3.2.1]octan-8-yl)-6-thiomorpholino-1,3,5-triazin-2-yl)phenyl)-3-(pyridin-4-yl)urea]",3.6 nM,444,1540,580,–,–
"O=C(Nc1ccc(-c2nc(Nc3ccc(N4CCNCC4)cc3)nc(N3CC4CCC(C3)O4)n2)cc1)NC1CC1 [Example 326, 1-cyclopropyl-3-(4-{4-(8-oxa-3-azabicyclo[3.2.1]oct-3-yl)-6-[(4-piperazin-1-ylphenyl)amino]-1,3,5-triazin-2-yl}phenyl)urea]",12.2 nM and 12 nM,830,6190,580,–,–
"CN(C)CC(=O)N1CCN(c2nc(-c3ccc(NC(=O)Nc4ccncc4)cc3)nc(N3CC4CCC(C3)O4)n2)CC1 [Example 112, 1-(4-{4-[4-(N,N-dimethylglycyl)piperazin-1-yl]-6-(8-oxa-3-azabicyclo[3.2.1]oct-3-yl)-1,3,5-triazin-2-yl}phenyl)-3-pyridin-4-ylurea]",12 nM,488,777,300,–,–
"CC(C)Nc1nc(-c2ccc(NC(=O)Nc3ccc(C(=O)NN4CCCC4)cc3)cc2)nc(N2CC3CCC(C2)O3)n1 [Example 219, 4-{[(4-{4-[(1-methylethyl)amino]-6-(8-oxa-3-azabicyclo[3.2.1]oct-3-yl)-1,3,5-triazin-2-yl}phenyl)carbamoyl]amino}-N-pyrrolidin-1-ylbenzamide]",5.9 nM,561,8280,40,–,–
"CCN1CCN(c2ccc(NC(=O)Nc3ccc(-c4nc(C5CCOCC5)nc(N5CCOC[C@H]5C)n4)cc3)cc2)CC1 [Example 428, (R)-1-(4-(4-ethylpiperazin-1-yl)phenyl)-3-(4-(4-(3-methylmorpholino)-6-(tetrahydro-2H-pyran-4-yl)-1,3,5-triazin-2-yl)phenyl)urea]",1.4 nM,450,840,1,–,–
"O=C(Nc1ccc(CO)cc1)Nc1ccc(-c2nc(N3CC4CCC(C3)O4)nc(N3CC4CCC(C3)O4)n2)cc1 [Example 32, 1-[4-(4,6-di-8-oxa-3-azabicyclo[3.2.1]oct-3-yl-1,3,5-triazin-2-yl)phenyl]-3-[4-(hydroxymethyl)phenyl]urea]",0.29 nM,45,2540,0.7,–,–
"NC(=O)c1ccc(NC(=O)Nc2ccc(-c3nc(Nc4ccc(N5CCNCC5)cc4)nc(N4CC5CCC(C4)O5)n3)cc2)cc1 [Example 329, 4-{[(4-{4-(8-oxa-3-azabicyclo[3.2.1]oct-3-yl)-6-[(4-piperazin-1-ylphenyl)amino]-1,3,5-triazin-2-yl}phenyl)carbamoyl]amino}benzamide]",0.68 nM,9.5,385,5900,9,363
"CC(C)(C)OC(=O)N1CCN(c2nc(-c3ccc(NC(=O)Nc4ccncc4)cc3)nc(N3CC4CCC(C3)O4)n2)CC1 [Example 106, Tert-butyl 4-(4-(8-oxa-3-azabicyclo[3.2.1]octan-3-yl)-6-(4-(3-pyridin-4-ylureido)phenyl)-1,3,5-triazin-2-yl)piperazine-1-carboxylate]",7.55 nM,393,1840,370,–,–
"C[C@@H]1COCCN1c1nc(-c2ccc(NC(=O)Nc3ccc(CN4CCCC4)cc3)cc2)nc(N2C3CCC2COC3)n1 [Example 418, 1-(4-(4-(3-oxa-8-azabicyclo[3.2.1]octan-8-yl)-6-((R)-3-methylmorpholino)-1,3,5-triazin-2-yl)phenyl)-3-(4-(pyrrolidin-1-ylmethyl)phenyl)urea]",1.5 nM,520,3480,40,–,–
